According to patent US4894458A, “Quinolonecarboxylic acid derivatives and their preparation” (Kyorin Pharmaceutical Co., Ltd., priority 1986, dated 1990):
In brackets after ≈: the same amount, converted by molar mass. Where two headings read alike, the source gives them in different places.

How the values were obtained:
Type in all cases: cell-based
[1] = system: B. thetaiotaomicron (0661); assay: In vitro antibacterial activity (anaerobic bacteria), MIC; conditions: Bacteroides thetaiotaomicron
[2] = system: Bacteroides fragilis GM 7000; assay: as above; conditions: GM7000
P. cepacia GIFU 518 = assay: In vitro antibacterial activity (aerobic bacteria), MIC; conditions: Burkholderia cepacia, GIFU518
[3] = system: Veillonella parvula KYA 10790; assay: In vitro antibacterial activity (anaerobic bacteria), MIC; conditions: KYA10790
P. maltophilia GIFU 2491 = assay: In vitro antibacterial activity (aerobic bacteria), MIC; conditions: Stenotrophomonas maltophilia, GIFU2491
[4] = system: Fusobacterium necrophorum S-45; assay: In vitro antibacterial activity (anaerobic bacteria), MIC; conditions: S45
[5] = system: Yersinia enterocolitica IID 981; assay: microbe, parasite or virus in culture; conditions: IID981
[6] = system: Salmonella enteritidis IID 604; assay: In vitro antibacterial activity (aerobic bacteria), MIC; conditions: Salmonella enterica
[7] = system: Eubacterium lentum GAI 5242; assay: In vitro antibacterial activity (anaerobic bacteria), MIC; conditions: Eggerthella lenta, GAI5242
[8] = system: Propionibacterium acens 11828; assay: as above
[9] = system: Klebsiella pneumoniae KY(GN)6445; assay: In vitro antibacterial activity (aerobic bacteria), MIC
B. fragilis 25285 = assay: In vitro antibacterial activity (anaerobic bacteria), MIC; conditions: Bacteroides fragilis
[10] = system: Citrobacter freundii IID 976; assay: In vitro antibacterial activity (aerobic bacteria), MIC; conditions: Citrobacter freundii
[11] = system: Escherichia coli NIHJ JC-2; assay: as above; conditions: NIHJJC2, aerobic, Gram -, 10^6 cells/ml
F. varium KYA 8501 = assay: In vitro antibacterial activity (anaerobic bacteria), MIC; conditions: Fusobacterium varium, KYA8501
[12] = system: Bacillus subtilis PCI 219; assay: In vitro antibacterial activity (aerobic bacteria), MIC; conditions: PCI219
B. distasonis 8503 = assay: In vitro antibacterial activity (anaerobic bacteria), MIC; conditions: Parabacteroides distasonis, Gram -, 10^6 cells/ml
B. fragilis 0558 = assay: as above; conditions: Bacteroides fragilis
[13] = system: Peptostreptococcus anaerobius KYA 27337; assay: as above; conditions: KYA27337
[14] = system: Alcaligenes faecalis 0114002; assay: In vitro antibacterial activity (aerobic bacteria), MIC; conditions: Alcaligenes faecalis, 0114002, aerobic; Gram -; 10^6 cells/ml
C. perfringens KYA 13123 = assay: microbe, parasite or virus in culture; conditions: Clostridium perfringens, KYA13123
[15] = system: Peptococcus magnus KY 017; assay: In vitro antibacterial activity (anaerobic bacteria), MIC; conditions: Finegoldia magna, KY017, Gram +, 10^6 cells/ml, read-out: MIC
Protocol: (§1) Minimal inhibitory concentrations (MICs) were determined in accordance with the method recommended by Japan Society of Chemotherapy.

P. aeruginosa IFO 12689 = assay: In vitro antibacterial activity (aerobic bacteria), MIC; conditions: Pseudomonas aeruginosa, IFO12689
[16] = system: Enterobacter cloacae IID 977; assay: as above; conditions: IID977
Pst micros UPI 5464-1 = assay: microbe, parasite or virus in culture
Shigella sonnei IID 969 = assay: In vitro antibacterial activity (aerobic bacteria), MIC; conditions: IID969, Gram -, 10^6 cells/ml
Protocol: as §1

K. pneumoniae 1-220S = assay: as above; conditions: Klebsiella pneumoniae, 1220S, Gram -, 10^6 cells/ml
Protocol: as §1

S. epidermidis IID 866 = assay: as above; conditions: Staphylococcus epidermidis, IID866, Gram +, 10^6 cells/ml
Protocol: as §1

E. coli ATCC 10536 = assay: as above; conditions: Escherichia coli, ATCC10536, Gram -, 10^6 cells/ml
Protocol: as §1

[17] = system: Staphylococcus aureus 209 P; assay: as above; conditions: Gram +, 10^6 cells/ml
Protocol: as §1

P. mirabilis IID 994 = assay: as above; conditions: Proteus mirabilis, IID994, Gram -, 10^6 cells/ml
Protocol: as §1

[18] = system: Pseudomonas aeruginosa V-1; assay: as above; conditions: Pseudomonas aeruginosa, V1, aerobic; Gram -; 10^6 cells/ml; read-out: MIC
Protocol: as §1

[19] = system: Acinetobacter anitratus IID 876; assay: as above; conditions: Acinetobacter calcoaceticus, IID876, Gram -, 10^6 cells/ml, read-out: MIC
Protocol: as §1

[20] = system: Proteus vulgaris IFO 3167; assay: as above; conditions: IFO3167, Gram -, 10^6 cells/ml
Protocol: as §1

[21] = system: Serratia marcescens IID 618; assay: as above; conditions: IID618, Gram -, 10^6 cells/ml
Protocol: as §1

[22] = system: S. aureus IID 670 (Terajima); assay: as above; conditions: Staphylococcus aureus, IID670, Gram +, 10^6 cells/ml
Protocol: as §1

[23] = system: Morganella morganii IID 602; assay: as above; conditions: Morganella morganii, IID602, Gram -, 10^6 cells/ml, read-out: MIC
Protocol: as §1

C. ramosum = assay: In vitro antibacterial activity (anaerobic bacteria), MIC; conditions: Thomasclavelia ramosa, anaerobic, Gram +, 10^6 cells/ml
[24] = system: Clostridium difficile I-E; assay: as above; conditions: Clostridioides difficile
P. aeruginosa IID 1210 = assay: In vitro antibacterial activity (aerobic bacteria), MIC; conditions: Pseudomonas aeruginosa, IID1210, aerobic; Gram -; 10^6 cells/ml

Structure (SMILES)	MIC [2]	MIC [3]	MIC (P. maltophilia GIFU 2491)	MIC [5]	MIC [6]	MIC [7]	MIC [9]	MIC (B. fragilis 25285)	MIC (F. varium KYA 8501)	MIC [12]	MIC (B. fragilis 0558)	MIC [13]	MIC [14]	MIC (C. perfringens KYA 13123)	MIC [15]	MIC (P. aeruginosa IFO 12689)	MIC [16]	MIC (Shigella sonnei IID 969)	MIC (K. pneumoniae 1-220S)	MIC (S. epidermidis IID 866)	further results
Cc1c(N2CCNCC2)c(F)cc2c(=O)c(C(=O)O)cn(C3CC3)c12 [Exp. 19, 1-Cyclopropyl-6-fluoro-1,4-dihydro-8-methyl-4-oxo-7-(1-piperazinyl)-3-quinolinecarboxylic acid]	0.78 µg/mL (≈ 2.26 µM)	0.39 µg/mL (≈ 1.13 µM)	0.39 µg/mL (≈ 1.13 µM)	0.05 µg/mL (≈ 0.145 µM)	0.05 µg/mL (≈ 0.145 µM)	0.2 µg/mL (≈ 0.579 µM)	0.05 µg/mL (≈ 0.145 µM)	0.78 µg/mL (≈ 2.26 µM)	3.13 µg/mL (≈ 9.06 µM)	0.05 µg/mL (≈ 0.145 µM)	0.39 µg/mL (≈ 1.13 µM)	0.78 µg/mL (≈ 2.26 µM)	0.39 µg/mL (≈ 1.13 µM)	0.2 µg/mL (≈ 0.579 µM)	0.39 µg/mL (≈ 1.13 µM)	0.78 µg/mL (≈ 2.26 µM)	0.05 µg/mL (≈ 0.145 µM)	0.025 µg/mL (≈ 0.0724 µM)	0.05 µg/mL (≈ 0.145 µM)	0.2 µg/mL (≈ 0.579 µM)	MIC ([1]; anaerobic, Gram -, 10^6 cells/ml, read-out: MIC): 6.25 µg/mL (≈ 18.1 µM); MIC (P. cepacia GIFU 518; aerobic, Gram -, 10^6 cells/ml): 0.78 µg/mL (≈ 2.26 µM); MIC [4]: 0.39 µg/mL (≈ 1.13 µM); MIC ([8]; anaerobic, Gram +, 10^6 cells/ml, read-out: MIC): 6.25 µg/mL (≈ 18.1 µM); MIC ([10]; IID976): 0.05 µg/mL (≈ 0.145 µM); MIC ([11]; read-out: MIC): 0.125 µg/mL (≈ 0.362 µM); MIC (B. distasonis 8503; read-out: MIC): 1.56 µg/mL (≈ 4.52 µM); MIC (Pst micros UPI 5464-1; anaerobic, Gram +, 10^6 cells/ml): 0.39 µg/mL (≈ 1.13 µM); MIC (E. coli ATCC 10536): 0.05 µg/mL (≈ 0.145 µM); MIC [17]: 0.2 µg/mL (≈ 0.579 µM); MIC (P. mirabilis IID 994): 0.025 µg/mL (≈ 0.0724 µM); MIC [18]: 0.1 µg/mL (≈ 0.29 µM); MIC [19]: 0.2 µg/mL (≈ 0.579 µM); MIC [20]: 0.025 µg/mL (≈ 0.0724 µM); MIC [21]: 0.05 µg/mL (≈ 0.145 µM); MIC [22]: 0.2 µg/mL (≈ 0.579 µM); MIC [23]: 0.1 µg/mL (≈ 0.29 µM); MIC (C. ramosum; read-out: MIC): 6.25 µg/mL (≈ 18.1 µM); MIC [24]: 3.13 µg/mL (≈ 9.06 µM); MIC (P. aeruginosa IID 1210): 0.78 µg/mL (≈ 2.26 µM)
Cc1c(N2C[C@@H](C)[C@H](N)C2)c(F)cc2c(=O)c(C(=O)O)cn(C3CC3)c12 (relative stereo) [Ex. 27, 7-(3,4-trans-3-Amino-4-methyl-1-pyrrolidinyl)-1-cyclopropyl-6-fluoro-1,4-dihydro-8-methyl-4-oxo-3-quinolinecarboxylic acid]	0.1 µg/mL (≈ 0.278 µM)	0.1 µg/mL (≈ 0.278 µM)	0.05 µg/mL (≈ 0.139 µM)	0.025 µg/mL (≈ 0.0696 µM)	0.025 µg/mL (≈ 0.0696 µM)	0.05 µg/mL (≈ 0.139 µM)	0.0125 µg/mL (≈ 0.0348 µM)	0.05 µg/mL (≈ 0.139 µM)	0.78 µg/mL (≈ 2.17 µM)	0.0125 µg/mL (≈ 0.0348 µM)	0.05 µg/mL (≈ 0.139 µM)	0.2 µg/mL (≈ 0.556 µM)	0.1 µg/mL (≈ 0.278 µM)	0.1 µg/mL (≈ 0.278 µM)	0.025 µg/mL (≈ 0.0696 µM)	0.39 µg/mL (≈ 1.09 µM)	0.025 µg/mL (≈ 0.0696 µM)	0.0063 µg/mL (≈ 0.0175 µM)	0.025 µg/mL (≈ 0.0696 µM)	0.05 µg/mL (≈ 0.139 µM)	MIC [1]: 0.2 µg/mL (≈ 0.556 µM); MIC (P. cepacia GIFU 518): 0.2 µg/mL (≈ 0.556 µM); MIC [8]: 0.78 µg/mL (≈ 2.17 µM); MIC ([10]; IID976, aerobic, Gram -, 10^6 cells/ml): 0.0063 µg/mL (≈ 0.0175 µM); MIC [11]: 0.0063 µg/mL (≈ 0.0175 µM); MIC (B. distasonis 8503): 0.39 µg/mL (≈ 1.09 µM); MIC (Pst micros UPI 5464-1): 0.05 µg/mL (≈ 0.139 µM); MIC (E. coli ATCC 10536): 0.0063 µg/mL (≈ 0.0175 µM); MIC [17]: 0.025 µg/mL (≈ 0.0696 µM); MIC (P. mirabilis IID 994): 0.025 µg/mL (≈ 0.0696 µM); MIC [18]: 0.2 µg/mL (≈ 0.556 µM); MIC [19]: 0.025 µg/mL (≈ 0.0696 µM); MIC [20]: 0.0063 µg/mL (≈ 0.0175 µM); MIC [21]: 0.05 µg/mL (≈ 0.139 µM); MIC [22]: 0.025 µg/mL (≈ 0.0696 µM); MIC [23]: 0.05 µg/mL (≈ 0.139 µM); MIC (C. ramosum): 0.39 µg/mL (≈ 1.09 µM); MIC [24]: 0.39 µg/mL (≈ 1.09 µM); MIC (P. aeruginosa IID 1210): 0.39 µg/mL (≈ 1.09 µM)
